How the values were obtained:
T-380 tumors [1] = test: Hapten biodistribution, premix protocol with bifunctional antibody ECH037.2; assay type: in vivo, nude mice; parameters: TOTAL RECOV: unit not given here; conditions: for % DOSE PER GRAM, KIDNEY / % DOSE PER GRAM, LIVER / % DOSE PER GRAM, TUMOR / FECES / URINE / % DOSE PER GRAM, BLOOD / TUMOR/BLOOD / TOTAL RECOV: premix with 20 µg ECH037.2; for % DOSE PER GRAM, BLOOD: 111In-labeled hapten i.v.; for TUMOR/BLOOD: ratio; for Percent Injected Dose in Feces: premix protocol (Table VI); for %Dose per Gram, Blood / %Dose per Gram, Tumor: premix with 20 µg ECH037.2 (Table VIII)
Description: (§1) Two protocols were used for examining the biodistribution of the derivatized haptens in the presence of the bifunctional antibody ECH037.2. In a premix protocol, ECH037.2 and the derivatized hapten were combined prior to injection in the animals. In the prelocalization protocol, ECH037.2 was injected into the animals, and the antibody was allowed to prelocalize for 24 hours prior to injection of the radiolabeled hapten.
(§2) Biodistribution studies were performed in nude mice carrying subcutaneous implants of the human colon carcinoma cell line T-380 which expresses the carcinoembryonic antigen (CEA) recognized by ECH037.2. Briefly, Balb/C Nu/Nu mice were injected subcutaneously with a minced preparation of T-380 tumor implants and maintained for approximately two weeks, or until the tumor implant had grown to a size of approximately 0.5 grams as described by Hagan, P.L., et al. J. Nuc. Med., 26 1418-1423 (1985). Mice were kept in a sterile environment to prevent complications due to bacterial or viral infections. Biodistributions were performed as described by Halpern, S., et al., Cancer Res. 43, 5347-5355 (1983). Briefly, the radiolabeled haptens were injected intravenously in […], and the pharmacokinetics were evaluated at several time points post-injection. At these times, mice were sacrificed and weighed. Organs were removed, their weight recorded, and each organ was then washed in sterile PBS, pH 7.0, and fixed in formalin solution. Samples of blood, urine and feces also were collected and their weight similarly recorded. The organs, or a portion thereof, were transferred to clean tubes and their radioactive content was determined in a well-type gamma-counter.
(§3) Relative radioactive content of each organ was expressed as a percentage of injected dose per organ.
To indium-label the haptens of the invention 10 »l of 0.1 mM ligand was combined with X »l of ¹¹¹InCl₃ (in 50 mM HCl) and (x+10) »l of 0.26 M ammonium citrate, pH 6.0. X is calculated by the following equation: X = (200 »Ci)/(A »Ci/»l) [formula] where A is the specific activity of the ¹¹¹In.
The labeling was done in an acid-washed microfuge tube. After combining all of the components above, the solution was vortexed and allowed to stand at room temperature for 15 minutes.
Incorporation of the ¹¹¹In into the chelating agent was determined by TLC on silica in a methanol/aqueous ammonium acetate solvent system as described by Meares, et al. (Anal. Biochem., 142, 68-75 (1984)). Greater than 95% incorporation of the radioactivity into the chelate was required for the sample to be submitted for a biodistribution assay.
Prior to injection the ¹¹¹In-labeled hapten was diluted into freshly prepared isotonic sodium bicarbonate (1.39% w/v) containing 1 mg/ml normal human serum albumin (Buminate, 25% solution, Travenol Laboratories, Glendale, California) to which the bifunctional antibody had been added. The final composition of the solution was 0.2 mg/ml ECH037.2, 0.5 »M chelate, 0.1 »Ci/»l ¹¹¹In, all in a volume of 2.0 ml. For the biodistribution studies, 100 »l of the solution was injected into the tail vein of each animal.

T-380 tumors [2] = test: Hapten biodistribution, prelocalization protocol with bifunctional antibody ECH037.2; assay type: in vivo, nude mice; conditions: in words
Description: as §1, §2, §3
To indium-label the chelating agents for the prelocalization protocol, 5 »l of 0.1 mM chelating agent was combined with X »l of ¹¹¹InCl₃ (in 50 mM HCl) and (x+5) »l of 0.26 M ammonium citrate, pH 6.0. X was calculated by the following equation: X = 200 »Ci/A »Ci/»l [formula] where A is the specific activity of the ¹¹¹InCl₃ solution. The solution was vortexed and allowed to stand at room temperature for 15 minutes, after which incorporation of ¹¹¹In label into the chelating agent was determined as described for the premix protocol. If at least 95 percent of the ¹¹¹In was bound by the chelating agent, the material was then diluted to a final volume of 2 ml with isotonic (1.39 percent, w/v) sodium bicarbonate containing 1 mg/ml normal human serum albumin. This material (100 »l) then was injected into each tail vein of mice which had each been injected 24 hours earlier with 5 »g of ECH037.2 in 100 »l isotonic sodium bicarbonate containing 1 mg/ml normal human serum albumin.

[3] = system: monoclonal antibody CHA255; test: Determination of hapten-antibody dissociation rates; assay type: binding, BALB/c mice; conditions: 22°C; indium complex of hapten from CHA255 after 100 fold excess of indium-115 loaded hapten
Description: Hapten-antibody dissociation rates were determined using monoclonal antibody CHA255, prepared as described in Example 2A, by measuring the quantity of ¹¹¹In³⁺ chelate released from the antibody hapten complex as a function of time after addition of a 100 fold excess (over antibody binding sites) of indium-115 loaded hapten. Thus, for each hapten, a 700 »l solution was prepared containing: antibody at a concentration of 160 nM; indium loaded hapten, trace labeled with ¹¹¹In (total concentration = 160 nM); normal human serum albumin at a total concentration of 1.5 mg/mL; and isotonic phosphate buffered saline, (10 mM PO₄²⁻, 150 mM NaCl, pH 7.2). Indium-115 loaded hapten was added to a final Concentration of […]. Reactions were stirred by placing the sample containers ir a rack mounted on a vortexer head.
At various times after addition of the excess hapten, […] portions of the reaction solutions were transferred to Centrifree tubes (Amicon Corperation, Danvers, Massachusetts) and centrifuged at 1500xg for eight to ten minutes. The reaction time was taken to be the time between addition of the excess hapten and the time the centrifuge reached the desired velocity. Six timepoints, each in duplicate, were obtained over a range of about two reaction half-lives for each rate constant determination. A 200 »l portion from each centrifuged and uncentrifuged solution was then counted for ¹¹¹In. The relative concentration of free hapten was taken to be the ratio of counts in the centrifuged solution to the uncentrifuged solution at each timepoint. Times were recorded to the nearest tenth of a minute.
Room temperature rate constants were measured without the aid of a constant temperature bath. The ambient temperature remained at 22°±1 C.
Rate constants and standard deviations were obtained from a plot of the logarithm of relative complex concentration vs. time. Data were analyzed using the linear regression module of the RS/1 Program (BBN Software Products Corporation, Cambridge, Massachusetts).
Control samples were included in each experiment to determine: A) that the initial condition of 100% of labeled hapten bound to antibody was met, and B) that in the absence of antibody, 100% of counts were able to penetrate the Centrifree membrane. […]

| SMILES | % DOSE PER GRAM, KIDNEY (T-380 tumors [1]; 24 hours) | % DOSE PER GRAM, LIVER (T-380 tumors [1]; 24 hours) | % DOSE PER GRAM, TUMOR (T-380 tumors [1]; 24 hours) | FECES (T-380 tumors [1]; 24 hours) | URINE (T-380 tumors [1]; 24 hours) | % DOSE PER GRAM, BLOOD (T-380 tumors [1]; 24 hours) | TUMOR/BLOOD (T-380 tumors [1]; 24 hours) | Percent Injected Dose in Feces (T-380 tumors [1]; 24 hrs.) | % DOSE PER GRAM, KIDNEY (T-380 tumors [1]; 48 hours) | % DOSE PER GRAM, LIVER (T-380 tumors [1]; 48 hours) | % DOSE PER GRAM, TUMOR (T-380 tumors [1]; 48 hours) | FECES (T-380 tumors [1]; 48 hours) | URINE (T-380 tumors [1]; 48 hours) | % DOSE PER GRAM, BLOOD (T-380 tumors [1]; 48 hours) | TUMOR/BLOOD (T-380 tumors [1]; 48 hours) | Percent Injected Dose in Feces (T-380 tumors [1]; 48 hrs.) | TOTAL RECOV (T-380 tumors [1]; 24 hours) | %Dose per Gram, Blood (T-380 tumors [1]; 24 hrs. post-injection) | TOTAL RECOV (T-380 tumors [1]; 48 hours) | t1/2, Dissociation Half-Lives [3] | other results |
| --- | --- | --- | --- | --- | --- | --- | --- | --- | --- | --- | --- | --- | --- | --- | --- | --- | --- | --- | --- | --- | --- |
| O=C(O)CN(CC(=O)O)CC(Cc1ccc(NC(=S)NCCO)cc1)N(CC(=O)O)CC(=O)O (stereo not drawn) [EOTUBE] | 2.8 % DOSE PER GRAM | 3.8 % DOSE PER GRAM | 12.5 % DOSE PER GRAM | 6.2% of total injected dose | 25.9% of total injected dose | 9.3 % DOSE PER GRAM | 1.34 | 6.2 Percent Injected Dose | 1.4 % DOSE PER GRAM | 3.1 % DOSE PER GRAM | 14.5 % DOSE PER GRAM | 7.9% of total injected dose | 49.3% of total injected dose | 4.7 % DOSE PER GRAM | 3.09 | 7.9 Percent Injected Dose |  |  |  |  | tumor uptake (T-380 tumors [1]; premix protocol, Figure 1 (24 and 48 hours), in words): outstanding tumor uptake; tumor/blood ratios (T-380 tumors [1]; premix protocol, Figure 2 (24 and 48 hours), in words): good tumor/blood ratios; tumor/organ ratios (T-380 tumors [2]; 24 hours (Figure 7)): high tumor/organ ratios; tumor uptake (T-380 tumors [2]; all time points (Figures 3-5)): high tumor uptake at all time points |
| NCCNC(=S)Nc1ccc(CC(CN(CC(=O)O)CC(=O)O)N(CC(=O)O)CC(=O)O)cc1 (stereo not drawn) [NUBE] | 4.0 % DOSE PER GRAM | 3.1 % DOSE PER GRAM | 8.5 % DOSE PER GRAM | 5.9% of total injected dose | 42.5% of total injected dose | 5.9 % DOSE PER GRAM | 1.44 | 5.9 Percent Injected Dose | 2.5 % DOSE PER GRAM | 1.9 % DOSE PER GRAM | 8.1 % DOSE PER GRAM | 12.9% of total injected dose | 52.6% of total injected dose | 2.0 % DOSE PER GRAM | 4.0 | 12.9 Percent Injected Dose | 66.3 | 5.8 %Dose per Gram | 74.1 | 0.76 h | %Dose per Gram, Tumor (T-380 tumors [1]; 24 hrs. post-injection): 11.7 %Dose per Gram; %Dose per Gram, Blood (T-380 tumors [1]; 48 hrs. post-injection): 3.3 %Dose per Gram; %Dose per Gram, Tumor (T-380 tumors [1]; 48 hrs. post-injection): 12.2 %Dose per Gram; %Dose per Gram, Blood (T-380 tumors [1]; 72 hrs. post-injection): 0.7 %Dose per Gram; %Dose per Gram, Tumor (T-380 tumors [1]; 72 hrs. post-injection): 10.5 %Dose per Gram |
| O=C(O)CCNC(=S)Nc1ccc(CC(CN(CC(=O)O)CC(=O)O)N(CC(=O)O)CC(=O)O)cc1 (stereo not drawn) [PATUBE] | 2.2 % DOSE PER GRAM | 3.3 % DOSE PER GRAM | 10.6 % DOSE PER GRAM | 5.0% of total injected dose | 23.6% of total injected dose | 12.2 % DOSE PER GRAM | 0.87 | 5.0 Percent Injected Dose | 1.7 % DOSE PER GRAM | 2.4 % DOSE PER GRAM | 9.8 % DOSE PER GRAM | 8.9% of total injected dose | 36.0% of total injected dose | 7.6 % DOSE PER GRAM | 1.29 | 8.9 Percent Injected Dose | 53.7 |  | 61.7 | 1.46 h |  |
| O=C(O)CN(CC(=O)O)CC(Cc1ccc(NC(=S)Nc2ccccc2)cc1)N(CC(=O)O)CC(=O)O (stereo not drawn) [PHTUBE] | 2.9 % DOSE PER GRAM | 3.6 % DOSE PER GRAM | 12.4 % DOSE PER GRAM | 13.9% of total injected dose | 20.3% of total injected dose | 8.9 % DOSE PER GRAM | 1.39 | 13.9 Percent Injected Dose | 1.7 % DOSE PER GRAM | 2.3 % DOSE PER GRAM | 10.6 % DOSE PER GRAM | 21.7% of total injected dose | 24.5% of total injected dose | 5.4 % DOSE PER GRAM | 1.96 | 27.1 Percent Injected Dose | 57.2 |  | 62.4 | 1.25 h |  |
| NC(=S)Nc1ccc(CC(CN(CC(=O)O)CC(=O)O)N(CC(=O)O)CC(=O)O)cc1 (stereo not drawn) [TUBE] | 2.4 % DOSE PER GRAM | 4.0 % DOSE PER GRAM | 8.5 % DOSE PER GRAM | 4.1% of total injected dose | 23.7% of total injected dose | 8.0 % DOSE PER GRAM | 1.06 | 4.1 Percent Injected Dose | 1.1 % DOSE PER GRAM | 1.6 % DOSE PER GRAM | 6.5 % DOSE PER GRAM | 9.8% of total injected dose | 48.8% of total injected dose | 3.8 % DOSE PER GRAM | 1.71 | 9.9 Percent Injected Dose | 48.2 | 8.0 %Dose per Gram | 69.5 | 1.4 h | %Dose per Gram, Tumor (T-380 tumors [1]; 24 hrs. post-injection): 8.5 %Dose per Gram; %Dose per Gram, Blood (T-380 tumors [1]; 48 hrs. post-injection): 3.8 %Dose per Gram; %Dose per Gram, Tumor (T-380 tumors [1]; 48 hrs. post-injection): 6.5 %Dose per Gram; %Dose per Gram, Blood (T-380 tumors [1]; 72 hrs. post-injection): 1.7 %Dose per Gram; %Dose per Gram, Tumor (T-380 tumors [1]; 72 hrs. post-injection): 5.3 %Dose per Gram |

— patent EP0327365B1, “Improvements in or relating to modified haptens useful as imaging and therapeutic agents” (HYBRITECH INCORPORATED, priority 1988, dated 1989)
